Assay [1] has as its system Rattus norvegicus. Description: Increase in bone formation in ovariectomized Sprague-Dawley rat assessed as mineral apposition rate of proximal tibia cancellous bone at 30 mg/kg, po administered daily for 28 days. Type of assay: functional.
In assay [2] the test system is Rattus norvegicus. The experiment in a line: Effect on bone resorption in ovariectomized Sprague-Dawley rat assessed as serum C-telopeptide degradation product at 10 mg/kg, po administered daily for 28 days. Type of assay: functional, organism-based. On the set-up: dose 10 mg/kg.
The test system of assay [3] is Rattus norvegicus. The experiment in a line: Prevention of bone loss in ovariectomized Sprague-Dawley rat assessed as osteoclast surface of proximal tibia cancellous bone at 10 mg/kg, po administered daily for 28 days. Type of assay: functional.
In assay [4] the test system is Rattus norvegicus. The experiment in a line: Increase in bone formation in ovariectomized Sprague-Dawley rat assessed as mineralizing surface of proximal tibia cancellous bone at 30 mg/kg, po administered daily for 28 days. Type of assay: functional.
The subject of assay [5] is Rattus norvegicus. The experiment in a line: Increase in bone formation in ovariectomized Sprague-Dawley rat assessed as mineralizing surface of proximal tibia cancellous bone at 10 mg/kg, po administered daily for 28 days. Type of assay: functional.
The subject of another assay is Mesenchymal stem cell. Description: Increase in alkaline phosphatase activity in human mesenchymal stem cells. Type of assay: functional, cell-based.
The subject of assay [6] is Rattus norvegicus. The experiment in a line: Increase in bone formation in ovariectomized Sprague-Dawley rat assessed as mineral apposition rate of proximal tibia cancellous bone at 10 mg/kg, po administered daily for 28 days. Type of assay: functional.
In assay [7] the test system is Rattus norvegicus. Description: Effect on bone metabolism in ovariectomized Sprague-Dawley rat assessed as bone formation rate of proximal tibia cancellous bone at 10 mg/kg, po administered daily for 28 days. Type of assay: functional.
For assay [8], the system named is Rattus norvegicus. The experiment in a line: Effect on bone metabolism in ovariectomized Sprague-Dawley rat assessed as bone formation rate of proximal tibia cancellous bone at 30 mg/kg, po administered daily for 28 days. Type of assay: functional.
Assay [9] has as its system Rattus norvegicus. Description: Effect on bone resorption in ovariectomized Sprague-Dawley rat assessed as serum C-telopeptide degradation product at 30 mg/kg, po administered daily for 28 days. Type of assay: functional, organism-based. On the set-up: dose 30 mg/kg.
The subject of assay [10] is Rattus norvegicus. Description: Prevention of bone loss in ovariectomized Sprague-Dawley rat assessed as osteoclast surface of proximal tibia cancellous bone at 30 mg/kg, po administered daily for 28 days. Type of assay: functional.
Assay [11] has as its system Rattus norvegicus. The experiment in a line: Prevention of bone loss in po dosed ovariectomized Sprague-Dawley rat assessed as osteoclast surface of proximal tibia cancellous bone. Type of assay: functional.
For assay [12], the system named is Rattus norvegicus. The experiment in a line: Effect on bone turnover in po dosed ovariectomized Sprague-Dawley rat assessed as mineralizing surface of proximal tibia cancellous bone. Type of assay: functional.
Assay [13] has as its system Rattus norvegicus. The experiment in a line: Effect on bone metabolism in po dosed ovariectomized Sprague-Dawley rat assessed as bone formation rate of proximal tibia cancellous bone. Type of assay: functional.

The structures appear in SMILES notation. Active and inactive are the calls of the source. The calls are words filed in the database; no cut-off is given here.

`CN(c1ccccc1CNc1nc(Nc2ccc3c(c2)CC(=O)N3)ncc1C(F)(F)F)S(C)(=O)=O.Cl`: the Activity in the assay with Rattus norvegicus [1] turned out to be 1.96 micrometer/day; in the assay with Rattus norvegicus [3], 7.83%; in the assay with Rattus norvegicus [4], 40.6%; in the assay on Rattus norvegicus [5] it was 36.81%; in the assay with Rattus norvegicus [6], 1.77 micrometer/day; in the assay with Rattus norvegicus [7] it was 240.17 microm2/micrometer/d. For the same compound, the Activity in the assay with Rattus norvegicus [8] is on record as 291.43 microm2/micrometer/d; with Rattus norvegicus [10], 6.13%. Besides, the outcome in the assay with Rattus norvegicus [2] and with Rattus norvegicus [9] was inactive. Besides, the outcome with Mesenchymal stem cell was Active.

In the case of `C#CC1(O)CC[C@H]2[C@@H]3CCc4cc(O)ccc4[C@H]3CC[C@@]21C` (single isomer, unassigned) [ETHINYL ESTRADIOL], the figures for the Activity in the assay with Rattus norvegicus [11], in the assay on Rattus norvegicus [12] and in the assay on Rattus norvegicus [13] were 4.55%, 20.22% and 77.91 microm2/micrometer/d, respectively.

The values above are taken from ChEMBL document CHEMBL1142231, “Proline-rich tyrosine kinase 2 regulates osteoprogenitor cells and bone formation, and offers an anabolic treatment approach for osteoporosis” (Proc Natl Acad Sci U S A, 2007).
